Reference: paper PMC7616463, “Peptidic boronic acid Plasmodium falciparum SUB1 inhibitors with improved selectivity over human proteasome” (Journal of medicinal chemistry, 2024)

Columns and labels:
[1] = target: T1, recombinant PfSUB1 (rPfSUB1) (Plasmodium falciparum, UniProt Q8I0V0); experiment: PfSUB1 enzyme assay (recombinant PfSUB1, fluorogenic peptide substrate); format: biochemical; conditions: for IC50: rPfSUB1, substrate SERA4st1F-6R12 0.1 μM, 5 min preincubation, pH 8.2, fluorescence, duplicate, read-out: IC50, nM PfSUB1 inhibition; for inhibition of rPfSUB1 activity at 1 μM: 1 μM final concentration, typical of duplicate assays
T1 construct: made in house
T1 sequence (Q8I0V0 218-688): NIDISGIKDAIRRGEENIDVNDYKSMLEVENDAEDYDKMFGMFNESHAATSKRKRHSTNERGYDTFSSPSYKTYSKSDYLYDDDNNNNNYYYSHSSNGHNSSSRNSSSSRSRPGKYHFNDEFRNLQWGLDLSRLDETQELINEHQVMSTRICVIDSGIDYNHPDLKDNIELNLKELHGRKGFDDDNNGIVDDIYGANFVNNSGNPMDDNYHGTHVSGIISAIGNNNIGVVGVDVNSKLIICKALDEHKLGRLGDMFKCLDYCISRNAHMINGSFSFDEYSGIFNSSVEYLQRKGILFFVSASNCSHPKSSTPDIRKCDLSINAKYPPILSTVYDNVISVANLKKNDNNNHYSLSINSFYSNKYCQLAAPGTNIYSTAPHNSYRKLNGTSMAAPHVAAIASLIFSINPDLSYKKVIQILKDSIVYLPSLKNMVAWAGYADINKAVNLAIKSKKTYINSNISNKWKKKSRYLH
Description: The proteolytic activity of rPfSUB1 was monitored by the cleavage of the fluorogenic peptidic substrate SERA4st1F-6R12 (Ac-[…]-OH) and has been described previously.[28] Briefly, chymotrypsin treated rPfSUB1 (expressed and purified as described before […] was stored at −80 °C as a 228 U/mL stock in 20 mM Tris−HCl pH 8.2, 150 mM NaCl, 10% glycerol, and diluted for use (1:500) in reaction buffer (20 mM Tris−HCl pH 8.2, 150 mM NaCl, 12 mM CaCl2, 25 mM CHAPS). Peptidic boronic acid inhibitors were dissolved in 100% DMSO at 20 mM, then further diluted in DMSO to generate stock solutions ranging from 500 to 0.01 μM and then used diluted 1:100 in the enzyme reactions. All reactions were performed in wells of white 96-well microwell plates (Nunc); 50 μL diluted rPfSUB1 was preincubated for 5 min with 1 μL each of the serially diluted boronic acid inhibitors, followed by addition of 50 μL substrate solution (0.1 μM final). Subsequent fluorescence increase was continuously monitored using a SpectraMax M5e plate reader and SoftMax Pro-6.3 software, with readings taken every 3 min for 60 min using excitation and emission values of 552 and 580 nm, respectively. […] All experiments were performed in duplicate.

[2] = target: T2, human 20S proteasome (H20S), chymotrypsin-like β5 activity (Homo sapiens, UniProt P20618+P28074); experiment: Human 20S proteasome kinetic assay (chymotrypsin-like β5 activity); format: biochemical; conditions: purified human 20S proteasome, β5 activity, substrate LLVY-R110, fluorescence; duplicate; read-out: IC50, nM H20S inhibition
T2 construct: variant as stated: H20S
Description: The fluorescent Proteasome substrate LLVY-R110 (ex: 490 nm, Em:525 nm) (#MAK172, Sigma-Aldrich) was used to measure the chymotrypsin-like activity (β5) of the human 20S proteasome and was prepared according to the activity assay kit instructions. Cleavage of this peptide generated intense green fluorescence due to the R110 group and was monitored at 520-530 nm with excitation at 480-500 nm. The purified human 20S proteasome (BML-PW8720-0050, EnzoSciences), stored at 1mg/ml in 20 mM Tris-HCl pH 7.2, 1mM EDTA, 1mM DTT 1mM NaN3, 50% glycerol was diluted in TRIS-buffered saline (TBS, pH 7.4) to an intermediate concentration of 0.44 μM. […] The reactions were performed in white 96-well fluorescent microtiter-plate format (Nunc). The Substrate solution was added first (100 μl), followed by 1 μl of the inhibitor (50 μM intermediate stock) and 1 μl of the H20S proteasome at 0.44 μM. The IC50s were determined for a selection of potent PfSUB1 inhibitors. After sequential dilution of the inhibitors in 100% DMSO, 1 μl of each dilution was used in a 100 μl reaction containing the fluorescent substrate. The reaction was initiated by the addition of 1 μl of the 20S proteasome intermediate stock solution. The fluorescence increase was monitored using a SpectraMax M5e plate reader and SoftMax Pro-6.3 software Measure activity on a plate reader (ex: 490 nm, Em: 525 nm) with the photomultiplier tube (PMT) set to medium with readings every 3 min for one hour. All measurements were done in duplicate. The progress curves were plotted within GraphPad Prism 9.5.0.

CC(=O)N[C@H](C(=O)N[C@@H](CC1CCCC1)C(=O)NCC(=O)N[C@@H](C)B(O)O)C1CCCC1 [2c, ((2R,8S,11S)-11-cyclopentyl-8-(cyclopentylmethyl)-4,7,10,13-tetraoxo-3,6,9,12-tetra-azatetradecan-2-yl)boronic acid]
IC50 [1]: 7.5 ± 0.8 nM

CC(=O)N[C@H](C(=O)N[C@H](C(=O)NCC(=O)N[C@@H](C)B(O)O)c1ccccc1)C1CCCC1 [2b, ((2R,8S,11S)-11-cyclopentyl-4,7,10,13-tetraoxo-8-phenyl-3,6,9,12-tetraazatetradecan-2-yl)boronic acid]
IC50 [1]: 2.8 ± 0.1 nM

CC(=O)N[C@H](C(=O)N[C@@H](CC(C)C)C(=O)NCC(=O)N[C@@H](C)B(O)O)C1CCCC1 [2g, ((2R,8S,11S)-11-cyclopentyl-8-isobutyl-4,7,10,13-tetraoxo-3,6,9,12-tetraazatetra-decan-2-yl)boronic acid]
IC50 [1]: 7.8 ± 0.1 nM

CC[C@H](C)[C@H](NC(=O)[C@@H](NC(=O)c1cc(C)cc(C)c1)C1CCCC1)C(=O)NCC(=O)N[C@@H](C)B(O)O [3c, ((3S,6S,12R)-6-((S)-sec-butyl)-3-cyclopentyl-1-(3,5-dimethylphenyl)-1,4,7,10-tetra-oxo-2,5,8,11-tetraazatridecan-12-yl)boronic acid]
IC50 [1]: 6.9 ± 0.3 nM

CC(=O)N[C@H](C(=O)N[C@@H](Cc1ccccc1)C(=O)NCC(=O)N[C@@H](C)B(O)O)C1CCCC1 [2h, ((2R,8S,11S)-8-benzyl-11-cyclopentyl-4,7,10,13-tetraoxo-3,6,9,12-tetraazatetradecan-2-yl)boronic acid]
IC50 [1]: 6.9 ± 2.6 nM

CC(=O)N[C@H](C(=O)N[C@H](C(=O)NCC(=O)N[C@@H](C)B(O)O)[C@@H](C)O)C1CCCC1 [1b]
IC50 [2]: 35.4 ± 1.7 nM

CC[C@H](C)[C@H](NC(=O)[C@@H](NC(=O)C(C)C)C1CCCC1)C(=O)NCC(=O)N[C@@H](C)B(O)O [3e, ((2R,8S,11S)-8-((S)-sec-butyl)-11-cyclopentyl-14-methyl-4,7,10,13-tetraoxo-3,6,9,12-tetraazapentadecan-2-yl)boronic acid]
IC50 [1]: 3.9 ± 0.3 nM

CC[C@H](C)[C@H](NC(=O)[C@@H](NC(=O)c1ccc2ccccc2n1)C1CCCC1)C(=O)NCC(=O)N[C@@H](C)B(O)O [3a, ((3S,6S,12R)-6-((S)-sec-butyl)-3-cyclopentyl-1,4,7,10-tetraoxo-1-(quinolin-2-yl)-2,5,8,11-tetraazatridecan-12-yl)boronic acid]
IC50 [1]: 9.5 ± 0.6 nM | IC50 [2]: 6 ± 0.5 nM

CC[C@H](C)[C@H](NC(=O)[C@@H](NC(=O)c1ccc2ccccc2n1)C1CCCC1)C(=O)NCC(=O)N[C@H]1CCC(=O)OB1O [4a, N-((S)-1-cyclopentyl-2-(((2S,3S)-1-((2-(((R)-2-hydroxy-6-oxo-1,2-oxaborinan-3-yl)amino)-2-oxoethyl)amino)-3-methyl-1-oxopentan-2-yl)amino)-2-oxoethyl) quinoline-2-carboxamide]
IC50 [1]: 36.1 ± 2.4 nM | IC50 [2]: 410 ± 5 nM

((3S,6S,12R)-6-((S)-sec-butyl)-3-cyclopentyl-1-(3,5-dimethylphenyl)-1,4,7,10-tetra-oxo-2,5,8,11-tetraazatridecan-12-yl)boronic acid [3d]
IC50 [1]: 3.2 ± 0.1 nM

CC(C)C[C@H](NC(=O)[C@H](CCc1ccccc1)NC(=O)CN1CCOCC1)C(=O)N[C@@H](Cc1ccccc1)C(=O)N[C@@H](CC(C)C)C(=O)[C@@]1(C)CO1 [carfilzomib, reference compound]
inhibition of rPfSUB1 activity at 1 μM [1]: lack of inhibition

CC(=O)N[C@H](C(=O)N[C@H](C(=O)NCC(=O)N[C@@H](C)B(O)O)C(C)(C)C)C1CCCC1 [2a, ((2R,8S,11S)-8-(tert-butyl)-11-cyclopentyl-4,7,10,13-tetraoxo-3,6,9,12-tetraazatetradecan-2-yl)boronic acid]
IC50 [1]: 2.1 ± 0.1 nM

CC[C@H](C)[C@H](NC(=O)[C@@H](NS(=O)(=O)c1nccs1)C1CCCC1)C(=O)NCC(=O)N[C@@H](C)B(O)O [3h, ((R)-1-(2-((2S,3S)-2-((S)-2-cyclopentyl-2-(thiazole-2-sulfonamido)acetamido)-3-methylpentanamido)acetamido)ethyl)boronic acid]
IC50 [1]: 3.4 ± 0.3 nM

CC(=O)N[C@H](C(=O)N[C@@H](CC1CCCCC1)C(=O)NCC(=O)N[C@@H](C)B(O)O)C1CCCC1 [2d, ((2R,8S,11S)-8-(cyclohexylmethyl)-11-cyclopentyl-4,7,10,13-tetraoxo-3,6,9,12-tetra-azatetradecan-2-yl)boronic acid]
IC50 [1]: 6.7 ± 0.3 nM

CC[C@H](C)[C@H](NC(=O)[C@@H](NCc1ccccn1)C1CCCC1)C(=O)NCC(=O)N[C@@H](C)B(O)O [3j, ((3S,6S,12R)-6-((S)-sec-butyl)-3-cyclopentyl-4,7,10-trioxo-1-(pyridin-2-yl)-2,5,8,11-tetraazatridecan-12-yl)boronic acid]
IC50 [1]: 71 ± 6.8 nM

CC[C@H](C)[C@H](NC(=O)[C@@H](NC(=O)C1CCC1)C1CCCC1)C(=O)NCC(=O)N[C@@H](C)B(O)O [3g, ((3S,6S,12R)-6-((S)-sec-butyl)-1-cyclobutyl-3-cyclopentyl-1,4,7,10-tetraoxo-2,5,8,11-tetraazatridecan-12-yl)boronic acid]
IC50 [1]: 2 ± 0.1 nM

CC(=O)N[C@H](C(=O)N[C@@H](CC(C)(C)C)C(=O)NCC(=O)N[C@@H](C)B(O)O)C1CCCC1 [2e, ((2R,8S,11S)-11-cyclopentyl-8-neopentyl-4,7,10,13-tetraoxo-3,6,9,12-tetraazatetra-decan-2-yl)boronic acid]
IC50 [1]: 43.5 ± 2.7 nM | fold decreased PfSUB1 potency compared to homologue 2a ([1]; rPfSUB1 IC50 vs 2a): ~ 20 fold

CC[C@H](C)[C@H](NC(=O)[C@@H](NCc1ccccc1)C1CCCC1)C(=O)NCC(=O)N[C@@H](C)B(O)O [3i, ((3S,6S,12R)-6-((S)-sec-butyl)-3-cyclopentyl-4,7,10-trioxo-1-phenyl-2,5,8,11-tetra-azatridecan-12-yl)boronic acid]
IC50 [1]: 23.2 ± 0.3 nM

CC[C@H](C)[C@H](NC(=O)[C@@H](NC(C)=O)C1CCCC1)C(=O)NCC(=O)N[C@@H](C)B(O)O [2f, ((2R,8S,11S)-8-((S)-sec-butyl)-11-cyclopentyl-4,7,10,13-tetraoxo-3,6,9,12-tetraaza-tetradecan-2-yl)boronic acid]
IC50 [1]: 5.4 ± 0.1 nM

CC[C@H](C)[C@H](NC(=O)[C@@H](NC(=O)c1cccc(-c2ccccc2)n1)C1CCCC1)C(=O)NCC(=O)N[C@@H](C)B(O)O [3b, ((3S,6S,12R)-6-((S)-sec-butyl)-3-cyclopentyl-1,4,7,10-tetraoxo-1-(6-phenylpyridin-2-yl)-2,5,8,11-tetraazatridecan-12-yl)boronic acid]
IC50 [1]: 9.3 ± 0.2 nM | IC50 [2]: 7 ± 0.1 nM

CC[C@H](C)[C@H](NC(=O)[C@@H](NC(=O)C(C)(C)C)C1CCCC1)C(=O)NCC(=O)N[C@@H](C)B(O)O [3f, ((2R,8S,11S)-8-((S)-sec-butyl)-11-cyclopentyl-14,14-dimethyl-4,7,10,13-tetraoxo-3,6,9,12-tetraazapentadecan-2-yl)boronic acid]
IC50 [1]: 3.9 ± 0.3 nM

CC(C)C[C@H](NC(=O)CNC(=O)c1cc(Cl)ccc1Cl)B(O)O [ixazomib, reference compound]
inhibition of rPfSUB1 activity at 1 μM [1]: lack of inhibition

CC(C)C[C@H](NC(=O)[C@H](Cc1ccccc1)NC(=O)c1cnccn1)B(O)O [5a, bortezomib, reference compound]
inhibition of rPfSUB1 activity at 1 μM [1]: Non inhibitory^b | inhibition of rPfSUB1 activity at 1 μM ([1]; listed as bortezomib): lack of inhibition

CC[C@H](C)[C@H](NC(=O)[C@@H](NC(=O)c1cccc(-c2ccccc2)n1)C1CCCC1)C(=O)NCC(=O)N[C@H]1CCC(=O)OB1O [4b, N-((S)-1-cyclopentyl-2-(((2S,3S)-1-((2-(((R)-2-hydroxy-6-oxo-1,2-oxaborinan-3-yl)amino)-2-oxoethyl)amino)-3-methyl-1-oxopentan-2-yl)amino)-2-oxoethyl)-6-phenylpicolinamide]
IC50 [1]: 13 ± 0.6 nM | IC50 [2]: 160 ± 10 nM
